For experiment [1], the target named is T1, CRTh2 receptor (Homo sapiens, UniProt Q9Y5Y4).
T1 construct: expressed in transfected cells; host or cells: CHO.K1 (Chinese Hamster Ovary) cells, CHO.K1-CRTh2
T1 sequence (Q9Y5Y4 1-395): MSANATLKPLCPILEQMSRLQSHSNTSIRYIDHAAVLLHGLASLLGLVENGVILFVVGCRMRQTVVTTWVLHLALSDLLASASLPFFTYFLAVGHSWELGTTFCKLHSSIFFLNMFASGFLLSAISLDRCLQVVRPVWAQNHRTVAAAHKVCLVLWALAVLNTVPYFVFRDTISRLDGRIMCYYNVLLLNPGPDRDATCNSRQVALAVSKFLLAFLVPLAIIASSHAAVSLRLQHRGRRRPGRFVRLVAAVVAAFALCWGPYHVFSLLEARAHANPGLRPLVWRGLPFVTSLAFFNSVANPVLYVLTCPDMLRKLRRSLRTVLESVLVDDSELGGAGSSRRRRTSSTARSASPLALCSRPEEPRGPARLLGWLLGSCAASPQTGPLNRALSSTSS
Nature of the experiment: CRTH2 cAMP functional assay: inhibition of PGD2-mediated attenuation of forskolin-induced cAMP accumulation in CHO.K1-CRTh2 cells. Type of experiment: cell-based. The settings on record: 10 nM PGD2, 5 μM forskolin, cAMP Alphascreen. The protocol: Ki (dissocation constant for the inhibition) values for the CRTh2 antagonists are reported. Ki values are determined using Sigma Plot™ software, using the Cheng-Prussoff equation. Ki=IC50/1+[S]/Kd, where S is the concentration of radioligand and Kd is the dissociation constant. CRTH2 cAMP Functional Assay Protocol
This assay is conducted in CHO.K1-CRTh2 cells. cAMP is generated in the cell by stimulating cells with 5 μM forskolin, an adenylate cyclase activator. PGD2 is added to activate the CRTh2 receptor which results in the attenuation of the forskolin-induced cAMP accumulation. Potential CRTh2 antagonists are tested for their ability to inhibit the PGD2-mediated attenuation of the forskolin-induced cAMP accumulation in CHO.K1-CRTh2 cells.
For each concentration value on the dose-response curve, test compounds are prepared in assay stimulation buffer (HBSS, 5 mM HEPES, 10 μM IBMX±0.1% human serum albumin) containing DMSO (3% vol/vol) and 5 μL/well is added to an assay plate (384-well white optiplate).
CHO.K1-CRTh2 cultured in tissue culture flasks are washed with PBS and harvested with dissociation buffer. Cells are washed with PBS and resuspended in stimulation buffer to a concentration of 0.4×10^6/mL and added to the assay plate (10 μL/well).
The assay plate is incubated at room temperature on a shaker for 15 minutes.
A mix of agonist (10 nM Prostaglandin D2) and 5 μM forskolin is prepared in assay stimulation buffer and added to the assay plate (5 μL/well).
In addition, a cAMP standard is serially diluted in assay stimulation buffer and added to separate empty wells on the assay plate (20 μL/well). The cAMP standard allows for the quantification of cAMP generated in CHO.K1-CRTH2 cells.
The assay plate is incubated at room temperature on a shaker for 60 minutes.
Cell lysis buffer (Lysis buffer: Milli-Q H2O, 5 mM HEPES, 0.3% Tween-20, 0.1% human serum albumin) is added to a bead mix (containing Alphascreen™ anti-cAMP acceptor beads 0.06 units/μL, Alphascreen™ streptavidin-coated donor beads 0.06 units/μL, biotinylated cAMP 0.06 units/μL, 10 μM IBMX) is prepared under darkened conditions 60 minutes prior to addition to the assay plate. The resulting lysis mix is added to all wells of the assay plate (40 μL/well).
The assay plate is sealed with Topseal-S™ and incubated in the dark at room temperature on a shaker for 45 minutes. The plate is then counted using a Packard Fusion™ instrument.
The resulting counts per minute are converted to nM cAMP by using the prepared cAMP standard curve. IC50 values (concentration of CRTh2 antagonist required to inhibit 50% of the PGD2-mediated attenuation of forskolin-induced cAMP accumulation in CHO.K1-CRTh2 cells) are then determined using Prism™ software.
(In general: Changes in cAMP serve as a functional read-out for many G protein-coupled receptors.)

Experiment [2] deals with T1, CRTh2 receptor. Nature of the experiment: Filtration binding assay: competition with [3H]-PGD2 on CHO.K1-CRTh2 membranes (results text calls it SPA binding assay). The settings on record: [3H]-PGD2 2.5 nM, Cheng-Prussoff. Here is the method: The binding of CRTh2 antagonists is determined using membranes prepared from human CRTh2-expressing Chinese Hamster Ovary cells (CHO.K1-CRTh2). To produce cell membranes CHO.K1-CRTh2 cells cultured in roller bottles are harvested using cell dissociation buffer (Invitrogen). The cells are pelleted by centrifugation (167 g, 5 minutes). The cell pellet is incubated in hypotonic buffer (15 mM Tris-OH, 2 mM MgCl2, 0.3 mM EDTA, 1 mM EGTA, 1× Complete™ tablet) at 4° C. for 30 minutes. At 4° C. cells are homogenized using a Polytron® (IKA Ultra Turrax T25) for 5 bursts of 1 second. The homogenate is centrifuged (Beckman Optima TM TL Ultracentrifuge, 48,000 g, 30 minutes at 4° C.). The supernatant is discarded and the membrane pellet re-suspended in homogenisation buffer (75 mM Tris-OH, 12.5 mM MgCl2, 0.3 mM EDTA, 1 mM EGTA, 250 mM Sucrose, 1× Complete™ tablet. Membrane preparations are aliquoted and stored at […]. The protein content is estimated using Bradford Protein Assay Dye (Bio Rad).
The binding of [^3H]-PGD2 (157 Ci/mmol) to CHO.K1-CRTh2 membranes is determined in the absence (total binding) and presence (non-specific binding) of unlabelled PGD2 (1 μM). Subtraction of the cpm (counts per minute) of [^3H]-PGD2 binding in presence of excess unlabelled PGD2 from that observed in the absence of excess unlabelled PGD2 is defined as specific binding. Active CRTh2 antagonists are able to compete with [^3H]-PGD2 for binding to the CRTh2 receptor and are identified in a decrease in the number of cpm bound.
The assay is performed in Greiner U-bottomed 96 well-plates, in a final volume of 100 μL/well. CHO.K1-CRTh2 membranes were diluted in assay buffer (10 mM HEPES-KOH (pH 7.4), 1 mM EDTA and 10 mM MnCl2) and 10 μμg are added to each well. [^3H]-PGD2 is diluted in assay buffer and added to each well at a final concentration of 2.5 nM. To determine non-specific binding, [3H]-PGD2 binding to the CRTh2 receptor is competed with using unlabelled PGD2 at a final well concentration of 1 μM. The experiment is done in triplicate, with reagents added to the wells as follows: • 25 μL assay buffer for total binding or • 25 μL PGD2 to determine non-specific binding • 25 μL [^3H]PGD2 • […] membranes • 25 μL test compound in DMSO/assay buffer
The plates are incubated at RT on a shaker for 1 hour, and then harvested (Tomtec Harvester 9600) onto GF/C filter plates using wash buffer (10 mM HEPES-KOH, pH 7.4). […] Plates are then counted using a Packard Top Count instrument, Plates are then read on the Packard Topcount with the 3H Scintillation program (1 minute/well).
Ki (dissocation constant for the inhibition) values for the CRTh2 antagonists are reported. Ki values are determined using Sigma Plot™ software, using the Cheng-Prussoff equation. […]

Structures are written as SMILES.

Turning to `CC(Oc1ccc(Cl)cc1Cc1cc(Cl)ccc1OCC(=O)O)C(=O)N1CCCC1` (racemic) [Example 1, {4-Chloro-2-[5-chloro-2-(1-methyl-2-oxo-2-pyrrolidin-1-yl-ethoxy)-benzyl]-phenoxy}-acetic acid], in experiment [1], the midpoint of inhibition, the IC50, lay at 22.5 nM. Further, in experiment [2], the affinity corresponds to a Ki of 40.3 nM.
On to `CC(Oc1ccccc1Cc1cc(Cl)ccc1OCC(=O)O)C(=O)N1CCCC1` (single isomer, unassigned) [8 (enantiomer 1), {4-Chloro-2-[2-((R/S)-1-methyl-2-oxo-2-pyrrolidin-1-yl-ethoxy)-benzyl]-phenoxy}-acetic acid], for which the IC50 (in general, the midpoint of a concentration-inhibition curve) in experiment [1] turned out to be 25 nM. The Ki (as a rule, a dissociation constant, usually derived from enzyme kinetics or from competition with a known ligand) in experiment [2] is 60.2 nM.
In experiment [1], `CC(Oc1ccc(Cl)cc1Cc1cc(Cl)ccc1OCC(=O)O)C(=O)N1CCOCC1` (centres unmarked) [Example 3, {4-Chloro-2-[5-chloro-2-(1-methyl-2-morpholin-4-yl-2-oxo-ethoxy)-benzyl]-phenoxy}-acetic acid] returned an IC50 of 22.5 nM. The same compound displayed a Ki in experiment [2] of 95 nM.
As to `CC(Oc1ccccc1Cc1cc(Cl)ccc1OCC(=O)O)C(=O)N1CCCC1` (centres unmarked) [Example 7, {4-Chloro-2-[2-(1-methyl-2-oxo-2-pyrrolidin-1-yl-ethoxy)-benzyl]-phenoxy}acetic acid], half-maximal inhibition in experiment [1] (IC50) required 37.5 nM. Moreover, in experiment [2], the Ki came out at 82.4 nM.

The values are drawn from US7678826B2, “Organic compounds for the treatment of inflammatory or allergic conditions” (priority 2005, dated 2010).
